Test results: patent publication US20230140216A1, “COMBINATION THERAPY FOR TREATING MPS1” (GAIN THERAPEUTICS SA, priority 2020, published 2023)

Columns and labels:
[1] = molecular target: T1, Recombinant human α-L-iduronidase protein IDUA (Homo sapiens, UniProt P35475); test: IDUA inhibition assay; assay type: biochemical; settings: 4-MU alpha-L-iduronide substrate, pH 3.5, even at high concentrations
T1 construct: Ala26-Pro653 with a C-terminal 10_His tag; 10xHis (C); host or cells: HEK293f
T1 sequence (P35475 26-653): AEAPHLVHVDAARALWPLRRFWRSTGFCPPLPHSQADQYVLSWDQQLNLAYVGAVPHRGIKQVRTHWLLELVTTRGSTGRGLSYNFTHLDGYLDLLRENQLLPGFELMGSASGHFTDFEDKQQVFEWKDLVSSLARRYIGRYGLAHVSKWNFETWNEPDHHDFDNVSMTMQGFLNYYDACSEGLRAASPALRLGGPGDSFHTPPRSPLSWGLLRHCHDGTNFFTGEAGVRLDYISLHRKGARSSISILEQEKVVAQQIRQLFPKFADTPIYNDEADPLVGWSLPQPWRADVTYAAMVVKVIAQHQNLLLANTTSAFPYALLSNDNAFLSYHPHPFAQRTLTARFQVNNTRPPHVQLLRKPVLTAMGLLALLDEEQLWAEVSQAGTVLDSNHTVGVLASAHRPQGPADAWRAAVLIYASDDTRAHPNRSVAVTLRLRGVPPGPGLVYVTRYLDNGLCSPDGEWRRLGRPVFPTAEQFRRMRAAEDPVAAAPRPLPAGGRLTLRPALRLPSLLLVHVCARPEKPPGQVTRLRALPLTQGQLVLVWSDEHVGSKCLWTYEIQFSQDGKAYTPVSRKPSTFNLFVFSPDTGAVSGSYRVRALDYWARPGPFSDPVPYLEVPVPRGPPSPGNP
Description: The ability of Compound of the Disclosure to inhibit IDUA was assessed by the assay described below.
Recombinant human α-L-iduronidase protein IDUA PR_06_WT_X (obtained in the Institute of Biotechnology and Biomedicine in the UAB, Bellaterra, Spain) was prepared at the desired concentration in PBS:
Recombinant Human IDUA. HEK293f. Ala26-Pro653 with a C-terminal 10_His tag. Protein buffer: 40 mM sodium acetate, 400 mM NaCl and 20% glycerol, pH=5. Produced by PPP IBB UAB.
The activity assay (3 replicates of each sample) included the following procedures:
In dark 96-well plates compatible with fluorometer: • 1) 25 µL of Recombinant protein or PBS (in blank samples); • 2) 1 µL CO (50X concentrate, made in an intermediate plate) or DMSO for the untreated samples; • 3) 25 µL of 200 µM substrate solution (from a stock solution of 20 mM of substrate in DMSO), 4-Methylumbelliferyl alpha-L-iduronide (Glycosynth, 44076) in 0,4 M sodium formate, pH 3,5, and 0,2% triton; • 4) Mix (shaker); • 5) 37° C. 60 min; • 6) Stop the reaction by adding 200 µL of 0,5 M Glycine / 0,3 M NaOH, pH=10; and • 7) Read Fluorescence at Ex/Em: 340/460 nm.

[2] = molecular target: T2, Aldurazyme (laronidase) IDUA activity in bone marrow (Homo sapiens, UniProt P35475); test: IDUA assay in bone marrow after i.v. Aldurazyme with or without compound; assay type: in vivo, C57BL/6 male mice; settings: mice, compound i.v. + Aldurazyme 1.2 mg/kg i.v.
T2 construct: purchased Aldurazyme; host or cells: administered i.v. to C57BL/6 male mice
T2 sequence (P35475 26-653 limits assumed): T1 sequence (P35475 26-653)
Description: (§1) Evaluation of IDUA activity in mouse bone joint cartilage samples obtained from BIO-PCY-19-025 study, where C57BL/6 male mice were administered with 1.2 mg/kg Aldurazyme (i.v. bolus administration) in the presence and absence of Compound A.
(§2) Groups Details: • G1: Vehicle 2 +Aldurazyme (1.2 mg/kg,i.v.,) QD×1(n=6) [vehicle 2:NMP (5%) + Solutol HS-15 (5%) + Normal saline (45%) + PEG-400 (45%)]; • G2: Compound A (5 mg/kg, i.v.) + Aldurazyme (1.2 mg/kg, i.v.) QD x 1 (n=6); • G3: Compound A (10 mg/kg, i.v.) + Aldurazyme (1.2 mg/kg, i.v.) QD x 1 (n=6); • G4: Compound A (20 mg/kg, i.v.) + Aldurazyme (1.2 mg/kg, i.v.) QD x 1 (n=6); and • G5: Naïve Control (n=6).
Bone marrow samples from mice were collected at indicated time points. After repeated freeze thaw cycles for protein extraction, bone marrow samples were diluted in formate buffer (0.4 M, pH 3.5). Total protein was estimated using Bradford reagent. 25 µl of tissue homogenate and plasma samples were added to 25 µl of 0.18 mM of 4 MUI substrate and incubated at 37° C. for 30 min. […] Plate was read at excitation 355 nm and emission 460 nm. […]
(§3) IDUA activity was assessed from 4-MU standard curve. […] Final IDUA enzyme activity was expressed as nmols/mg of protein/hr. Data was analyzed using GraphPad prism software with one way ANOVA followed by Dunnett’s comparison test. […]

[3] = molecular target: T3, Aldurazyme (laronidase) IDUA activity in plasma (Homo sapiens, UniProt P35475); test: IDUA assay in plasma after i.v. Aldurazyme with or without compound; assay type: in vivo, C57BL/6 male mice; settings: mice, compound 5, 10, 20 mg/kg i.v. + Aldurazyme 1.2 mg/kg i.v.
T3 construct: purchased Aldurazyme; host or cells: administered i.v. to C57BL/6 male mice
T3 sequence (P35475 26-653 limits assumed): T1 sequence (P35475 26-653)
Description: as §1, §2
Plasma samples from mice were collected at indicated time points. Plasma samples were diluted in formate buffer and total protein was estimated using Bradford reagent. 25 µl of tissue homogenate and plasma samples were added to 25 µl of 0.18 mM of 4 MUI substrate and incubated at 37° C. for 30 min. Reaction was terminated using 200 µl of stop solution (0.3 M Glycine and 0.2 M sodium carbonate, pH 10.4). Plate was read at excitation 355 nm and emission 460 nm. […]
as §3

CCN(CC(=O)Nc1c(Cl)cccc1Cl)Cc1nc2ccsc2c(=O)[nH]1 [Compound A]
inhibition of IDUA enzymatic activity [1]: does not inhibit human IDUA
IDUA enzymatic activity in bone marrow [2]: increases IDUA enzymatic activity in a panel of tissues
plasma levels / PK profile of Laronidase [3]: increasing its plasma levels in a dose-dependent manner
